Experimental data from patent US20220071205A1, “HERBICIDE” (UPL LTD, priority 2018, published 2022).

Columns and labels:
[1] = tested on: winter wheat; assay: Normalised plant count of winter wheat, field trials (Example 1, FIG. 1); type: in vivo; details: average of 6 field trials
Description: A herbicide composition consisting of an SC of 450 g/L napropamide-m was applied to winter wheat either pre- or post-emergence. The normalised plant count was determined as a percentage of the plant count observed in the absence of the herbicide. Control experiments were conducted with the conventional herbicide Trooper, as defined above.
Results from an average of 6 field trials (napropamide; Trooper low dose: 4 sites; Trooper high dose: 2 sites) with herbicide application in October are shown in FIG. 1. […] Plant survival after emergence was 100% of the survival rate in the absence of napropamide.

[2] = tested on: winter wheat; assay: Normalised plant growth of winter wheat at another site (Example 1, FIG. 2); type: in vivo; details: pre-em
Description: Similar experiments were carried out at another site where the effect of seed depth was to be determined, see Example 3 below. Control experiments were conducted with the conventional herbicides Trooper and Xerton, as defined above.

## CCN(CC)C(=O)C(C)Oc1cccc2ccccc12 (stereo not drawn) [napropamide, N,N-diethyl-2-(α-naphthoxy) propionamide]
[1]; % of the survival rate in the absence of napropamide
  Plant survival after emergence: 100%
[1]; herbicide application in October
  effect on the growth of winter wheat: no detectable effect
[2]
  Plant survival after emergence: comparable with that following application of conventional herbicides Trooper/Malibu and Xerton
  effect on the growth of winter wheat: very low effect
